These are literature values, as cited in US20050118256A1, “Extended release alpha-2 agonist pharmaceutical dosage forms” (priority 2003, published 2005).

Counter-ions that a name gives are not always drawn.

The data set concerns skeletal muscle fibers, neuromuscular junction, spinal reflexes. The following applies: animal models.

Take `Clc1ccc2nsnc2c1NC1=NCCN1` [Tizanidine, 5-chloro-4-(2-imidazolin-2-ylamino)-2,1,3-benzothiodiazole hydrochloride]: the “effect on monosynaptic spinal reflexes” value is listed as “no major effect” and the “effect on skeletal muscle fibers or the neuromuscular junction” value was “no direct effect”.
